Measurements taken from US4593090A, “Novel nitrosourea compounds, method for preparing same, and pharmaceutical composition containing same” (Gogo Kimura, priority 1981, dated 1986).

What was measured:
[1] = Acute toxicity (LD50, Behrens-Karber method); format: in vivo, ICR mice; conditions: ip, mortality during 30 days; for LD50 at 720 h: mouse, in vivo
Protocol: Test compounds, dissolved or suspended in 0.5% aqueous CMC, were each intraperitoneally administered to ICR mice in a dose of 0.1 ml per 10 g body weight. LD50 (mg/kg) value of each test compound was calculated from the mortality of mice during 30 days by the Behrens-Karber method.

[2] = system: Leukemia L1210; experiment: Activity against Leukemia L1210, intraperitoneal, increase in life span of mice; format: in vivo, female mice (BDF1 family); conditions: for ED (maximum ILS) / ED30: Mus musculus, L1210, ip; for ED (maximum ILS): read-out: O.D. (optimum dosage); for ED30: read-out: ILS30; for Survivors after 60 days / Max. ILS % / Therapeutic ratio TR: ip; for Survivors after 60 days: 6-membered group; for Max. ILS %: 60-day observation, versus control; for Therapeutic ratio TR: O.D./ILS30
Protocol: Tests were conducted in accordance with the method for measuring antitumor activity of National Cancer Center Tokyo (A, Hoshi et al, Farumashia 9 464 (1973)). Test compounds were each intraperitoneally (referred to as ip) or orally (referred to as op) administered once a day for 5 successive days to a 6-membered group of femal mice (BDF1 family, each weighing 20 to 23 g) 24 hours after 1×10^5 cells of Leukemia L1210 have been implantated into the abdominal cavities of the mice, and the effect was evaluated by comparing the survival days of treated groups with those of an untreated group of mice (control group) in 60-day observation. An increase percentage of life span (ILS%) was calculated from said average survival days compared with those of the control group. Further, therapeutic ratio (O.D./ILD30, referred to as T.R.) of each tested compound was calculated from the daily dosage of the compound necessary to increase said average survival days by 30% as compared with the control group (this dosage is referred to as ILS 30) and the daily dosage giving a maximum increase of life span to mice implantated with L1210 cells, namely an optimum dosage (referred to as O.D.). The results of five successive days intraperitoneal administrations of test compounds were shown in Tables I to III, and those of five successive oral administrations in Table IV.

[3] = ip once a day for 5 successive days, daily dosage giving maximum increase of life span
[4] = ip once a day for 5 successive days, daily dosage increasing average survival days by 30%

Compound `COCCCO[C@@H]1O[C@H](CN(CCCOC)C(=O)N(CCCl)N=O)[C@@H](O)[C@H]1O` [Compound 168, 3-(3-methoxy-n-propyl)-3-(3-methoxy-n-propyl β-D-ribofuranose-5-yl)-1-(2-chloroethyl)-1-nitrosourea] has an LD50 at 720 h [1] of 500 mg/kg, an ED (maximum ILS) [2, 3] of 160 mg/kg and an ED30 [2, 4] of 3.3 mg/kg. The “Survivors after 60 days” value [2] was 4/6, the “Max. ILS %” value [2] was > 425% and the “Therapeutic ratio TR” value [2] was 48.5.
In the case of `CC(C)CN(C[C@H]1O[C@H](OC(C)(C)C)[C@H](O)[C@@H](O)[C@@H]1O)C(=O)N(CCCl)N=O` [Compound 28, 3-isobutyl-3-(2-methyl-2-propyl α-D-glucopyranose-6-yl)-1-(2-chloroethyl)-1-nitrosourea], the LD50 [1] is reported as 375 mg/kg, the “O.D. (optimum dosage)” value [2, 3] is reported as 130 mg/kg and the ILS30 [2, 4] is reported as 3.00 mg/kg. The “Survivors after 60 days” value [2] was 6/6, the “Max. ILS %” value [2] was > 700% and the “Therapeutic ratio TR” value [2] was 43.2.
`C=C(C)CN(C[C@H]1O[C@H](OC(C)CC)[C@H](O)[C@@H](O)[C@@H]1O)C(=O)N(CCCl)N=O` (stereo partly drawn) [Compound 18, 3-(2-methyl-2-propenyl)-3-(sec-butyl α-D-glucopyranose-6-yl)-1-(2-chloroethyl)-1-nitrosourea] showed an LD50 at 720 h [1] of 515 mg/kg, an ED (maximum ILS) [2, 3] of 170 mg/kg and an ED30 [2, 4] of 3.92 mg/kg. The “Survivors after 60 days” value [2] was 6/6, the “Max. ILS %” value [2] was > 700% and the “Therapeutic ratio TR” value [2] was 43.4.
For `CCC(C)OC1OC(CO)C(N(C(=O)N(CCCl)N=O)C(C)COC)C(O)C1O` [Compound 96, 3-(1-methyl-2-methoxyethyl)-3-(sec-butyl α-D-glucopyranose-4-yl)-1-(2-chloroethyl)-1-nitrosourea], the LD50 at 720 h [1] was 450 mg/kg, the ED (maximum ILS) [2, 3] was 150 mg/kg and the ED30 [2, 4] was 4.46 mg/kg. The “Survivors after 60 days” value [2] was 3/6, the “Max. ILS %” value [2] was > 355% and the “Therapeutic ratio TR” value [2] was 33.6.
Work on `CCCCN(C(=O)N(CCCl)N=O)C1C(O)C(CO)OC(OCCCOC)C1O` [Compound 76, 3-n-butyl-3-(3-methoxy-n-propyl α-D-glucopyranose-3-yl)-1-(2-chloroethyl)-1-nitrosourea] yielded an LD50 at 720 h [1] of 650 mg/kg, an ED (maximum ILS) [2, 3] of 200 mg/kg and an ED30 [2, 4] of 5.21 mg/kg. For the same compound, the “Survivors after 60 days” value [2] was 3/6, the “Max. ILS %” value [2] was > 360% and the “Therapeutic ratio TR” value [2] was 38.4.
Work on `CCCO[C@H]1O[C@H](CN(CC(C)C)C(=O)N(CCCl)N=O)[C@@H](O)[C@H](O)[C@H]1O` [Compound 1, 3-isobutyl-3-(n-propyl α-D-glucopyranose-6-yl)-1-(2-chloroethyl)-1-nitrosourea] yielded an LD50 at 720 h [1] of 340 mg/kg, an ED (maximum ILS) [2, 3] of 120 mg/kg and an ED30 [2, 4] of 2.96 mg/kg. For the same compound, the “Survivors after 60 days” value [2] was 6/6, the “Max. ILS %” value [2] was > 700% and the “Therapeutic ratio TR” value [2] was 40.5.
`CC(C)CN(C[C@H]1O[C@@H](OCCN2CCOCC2)[C@H](O)[C@@H](O)[C@@H]1O)C(=O)N(CCCl)N=O` [Compound 199, 3-isobutyl-3-(2-morpholinoethyl β-D-glucopyranose-6-yl)-1-(2-chloroethyl)-1-nitrosourea] showed an LD50 at 720 h [1] of 520 mg/kg, an ED (maximum ILS) [2, 3] of 160 mg/kg and an ED30 [2, 4] of 3.2 mg/kg. The “Survivors after 60 days” value [2] was 6/6, the “Max. ILS %” value [2] was > 700% and the “Therapeutic ratio TR” value [2] was 50.0.
In the case of `CCCCCCN(C[C@H]1O[C@H](OC2CCCCC2)[C@H](O)[C@@H](O)[C@H]1O)C(=O)N(CCCl)N=O` [Compound 100, 3-n-hexyl-3-(cyclohexyl α-D-galactopyranose-6-yl)-1-(2-chloroethyl)-1-nitrosourea], the LD50 at 720 h [1] is reported as 580 mg/kg, the ED (maximum ILS) [2, 3] is reported as 200 mg/kg and the ED30 [2, 4] is reported as 6.41 mg/kg. The “Survivors after 60 days” value [2] was 3/6, the “Max. ILS %” value [2] was > 330% and the “Therapeutic ratio TR” value [2] was 31.2.
With `CC(C)CN(C(=O)N(CCCl)N=O)[C@@H]1CO[C@H](OC2CCCCC2)[C@H](O)[C@H]1O` [Compound 151, 3-isobutyl-3-(cyclohexyl α-D-xylopyranose-4-yl)-1-(2-chloroethyl)-1-nitrosourea] the LD50 at 720 h [1] was 490 mg/kg, the ED (maximum ILS) [2, 3] was 150 mg/kg and the ED30 [2, 4] was 3.21 mg/kg. For the same compound, the “Survivors after 60 days” value [2] was 4/6, the “Max. ILS %” value [2] was > 425% and the “Therapeutic ratio TR” value [2] was 46.7.
In the case of `CC(C)CN(C(=O)N(CCCl)N=O)[C@H]1[C@@H](OC2CCCCC2)O[C@H](CO)[C@@H]1O` [Compound 166, 3-isobutyl-3-(cyclohexyl α-D-xylofuranose-2-yl)-1-(2-chloroethyl)-1-nitrosourea], the LD50 at 720 h [1] is reported as 450 mg/kg, the ED (maximum ILS) [2, 3] is reported as 150 mg/kg and the ED30 [2, 4] is reported as 4.75 mg/kg. For the same compound, the “Survivors after 60 days” value [2] was 3/6, the “Max. ILS %” value [2] was > 345% and the “Therapeutic ratio TR” value [2] was 31.6.
With `CC=CCO[C@H]1O[C@H](CN(CC(C)C)C(=O)N(CCCl)N=O)[C@@H](O)[C@H](O)[C@H]1O` [Compound 29, 3-isobutyl-3-(2-butenyl α-D-glucopyranose-6-yl)-1-(2-chloroethyl)-1-nitrosourea] the LD50 at 720 h [1] was 410 mg/kg, the ED (maximum ILS) [2, 3] was 140 mg/kg and the ED30 [2, 4] was 3.64 mg/kg. For the same compound, the “Survivors after 60 days” value [2] was 5/6, the “Max. ILS %” value [2] was > 620% and the “Therapeutic ratio TR” value [2] was 38.5.
Compound `CCC(C)N(C(=O)N(CCCl)N=O)[C@H]1[C@H](O)[C@H](O)[C@@H](OCc2ccccc2)O[C@@H]1CO` (stereo partly drawn) [Compound 138, 3-sec-butyl-3-(benzylα-D-mannopyranose-4-yl)-1-(2-chloroethyl)-1-nitrosourea] has an LD50 at 720 h [1] of 370 mg/kg, an ED (maximum ILS) [2, 3] of 120 mg/kg and an ED30 [2, 4] of 4.26 mg/kg. For the same compound, the “Survivors after 60 days” value [2] was 3/6, the “Max. ILS %” value [2] was > 350% and the “Therapeutic ratio TR” value [2] was 28.2.
`O=NN(CCCl)C(=O)N(CC1CCCO1)[C@H]1[C@H](O)[C@@H](OCCc2ccccc2)O[C@H](CO)[C@H]1O` (stereo partly drawn) [Compound 143, 3-tetrahydrofurfuryl-3-(phenyl-β-ethyl α-D-altropyranose-3-yl)-1-(2-chloroethyl)-1-nitrosourea] showed an LD50 at 720 h [1] of 460 mg/kg, an ED (maximum ILS) [2, 3] of 150 mg/kg and an ED30 [2, 4] of 3.52 mg/kg. The “Survivors after 60 days” value [2] was 4/6, the “Max. ILS %” value [2] was > 425% and the “Therapeutic ratio TR” value [2] was 42.6.
Work on `COCCCN(C(=O)N(CCCl)N=O)[C@@H]1CO[C@H](OC2CCCCC2)[C@@H](O)[C@@H]1O` [Compound 160, 3-(3-methoxy-n-propyl)-3-(cyclohexyl α-D-arabinopyranose-4-yl)-1-(2-chloroethyl)-1-nitrosourea] yielded an LD50 at 720 h [1] of 550 mg/kg, an ED (maximum ILS) [2, 3] of 180 mg/kg and an ED30 [2, 4] of 3.1 mg/kg. The “Survivors after 60 days” value [2] was 6/6, the “Max. ILS %” value [2] was > 700% and the “Therapeutic ratio TR” value [2] was 58.1.
`O=NN(CCCl)C(=O)N(CCC1CCCC1)C1C(O)C(CO)OC(OC2CCCCC2)C1O` [Compound 88, 3-(2-cyclopentylethyl)-3-(cyclohexyl α-D-glucopyranose-3-yl)-1-(2-chloroethyl)-1-nitrosourea] gave an LD50 at 720 h [1] of 710 mg/kg, an ED (maximum ILS) [2, 3] of 200 mg/kg and an ED30 [2, 4] of 6.62 mg/kg. The “Survivors after 60 days” value [2] was 3/6, the “Max. ILS %” value [2] was > 360% and the “Therapeutic ratio TR” value [2] was 30.2.
Compound `COCC(C)OC1OC(CO)C(O)C(O)C1N(CC(C)C)C(=O)N(CCCl)N=O` (stereo not drawn) [Compound 70] has an LD50 at 720 h [1] of 645 mg/kg, an ED (maximum ILS) [2, 3] of 200 mg/kg and an ED30 [2, 4] of 5.21 mg/kg. For the same compound, the “Survivors after 60 days” value [2] was 4/6, the “Max. ILS %” value [2] was > 420% and the “Therapeutic ratio TR” value [2] was 38.4.
`CC(C)CO[C@@H]1OC[C@H](N(C(=O)N(CCCl)N=O)C2CCCCC2)[C@H](O)[C@H]1O` [Compound 152] gave an LD50 at 720 h [1] of 550 mg/kg, an ED (maximum ILS) [2, 3] of 170 mg/kg and an ED30 [2, 4] of 4.31 mg/kg. For the same compound, the “Survivors after 60 days” value [2] was 4/6, the “Max. ILS %” value [2] was > 425% and the “Therapeutic ratio TR” value [2] was 43.1.
For `CC(C)CO[C@H]1O[C@H](CN(Cc2ccco2)C(=O)N(CCCl)N=O)[C@@H](O)[C@H](O)[C@H]1O` [Compound 24, 3-furfuryl-3-(isobutyl α-D-glucopyranose-6-yl)-1-(2-chloroethyl)-1-nitrosourea], the LD50 at 720 h [1] was 555 mg/kg, the ED (maximum ILS) [2, 3] was 180 mg/kg and the ED30 [2, 4] was 3.1 mg/kg. The “Survivors after 60 days” value [2] was 5/6, the “Max. ILS %” value [2] was > 620% and the “Therapeutic ratio TR” value [2] was 58.1.
`CC(C)CCN(C(=O)N(CCCl)N=O)[C@H]1[C@@H](O)[C@@H](CO)O[C@H](OCC(C)C)[C@@H]1O` [Compound 127, 3-isoamyl-3-(isobutyl α-D-galactopyranose-3-yl)-1-(2-chloroethyl)-1-nitrosourea] showed an LD50 at 720 h [1] of 600 mg/kg, an ED (maximum ILS) [2, 3] of 200 mg/kg and an ED30 [2, 4] of 6.56 mg/kg. The “Survivors after 60 days” value [2] was 3/6, the “Max. ILS %” value [2] was > 340% and the “Therapeutic ratio TR” value [2] was 30.5.
In the case of `COc1cc(CO[C@H]2O[C@H](CN(CC(C)C)C(=O)N(CCCl)N=O)[C@@H](O)[C@H](O)[C@H]2O)cc(OC)c1OC` [Compound 53, 3-isobutyl-3-(3,4,5-trimethoxybenzyl α-D-glucopyranose-6-yl)-1-(2-chloroethyl)-1-nitrosourea], the LD50 at 720 h [1] is reported as 350 mg/kg, the ED (maximum ILS) [2, 3] is reported as 120 mg/kg and the ED30 [2, 4] is reported as 3.95 mg/kg. The “Survivors after 60 days” value [2] was 4/6, the “Max. ILS %” value [2] was > 425% and the “Therapeutic ratio TR” value [2] was 30.4.
